# Measured values reported in patent US20060040884A1, “Antisense oligonucleotides directed to genes regulated by trapoxin-induced HDAC inhibition” (priority 2001, published 2006).
# Square brackets hold non-standard residues; d marks the D form. Peptide text beside a SMILES is read from it. ξ: configuration not given here. Aoe(9ξ) = N[C@@H](CCCCCC(=O)C1CO1)C(=O)O; dPip = O=C(O)[C@H]1CCCCN1
# How the values were obtained:
# H1299 cells [1] = test: Additional microarray analysis of RhoA, RhoB, RhoC expression in TPX-treated H1299 cells; type: cell-based, human; settings: H1299 cells treated with 30 nm TPX
# Description: Microarray analysis is performed essentially as described in Welsh, J. B. Cancer Res. 61 5974-8 (2001). Poly (A)+ RNA is prepared from H1299 cells treated with TPX or DMSO for 0, 6, and 24 h. RNA is also prepared from 136 transformed cell lines. Labelled cDNA is prepared and hybridized to HU6800 or U95a oligonucleotide arrays (Affymetrix, Santa Clara, Calif.). The arrays are scanned on an Affymetrix confocal scanner and analyzed with GENECHIP 3.1 software (Affymetrix). T-test of the results is done.
# H1299 cells [2] = test: Northern blot analysis of transcripts in TPX-treated H1299 cells; type: cell-based, human
# Description: Northern Blotting. […] RNA is separated by electrophoresis on denaturing agarose gels and transferred to nylon membranes. Membranes are hybridized with random hexanucleotide-primed ^32P-labeled DNA fragments that are prepared from the RhoB gene, using standard protocols.
# A subset of genes on Incyte cDNA arrays that were differentially expressed in response to HDAC inhibition by TPX treatment were analyzed using Northern blot analyses to confirm that the level of these transcripts changed in response to HDAC inhibition. Total RNA that was isolated from TPX-treated H1299 cells for 0, 6 and 18 h was hybridized with probes that were prepared from sequences of 8 differentially expressed transcripts, including G9 sialidase, IPP isomerase, p21^waf1, Interferon γ-inducible IP-30 (GILT), Hsp 70, urokinase plasminogen activator receptor, and KIAA0797. Although there were differences in the absolute changes in transcript levels that were determined by Northern analysis versus the arrays, the directional trend in the differential expression in response to TPX was confirmed for all of the genes tested.
# […] RNA is separated by electrophoresis on denaturing agarose gels and transferred to nylon membranes. […]
# Total RNA is isolated from H1299 cells treated for 6 h with 30 nM TPX or DMSO using Trizol reagent (Life Technologies). The RNA samples are analyzed by Northern blots using conventional methods. […]
# p21waf1 = test: Immunoblot detection of p21waf1 protein induction in response to trapoxin A; type: cell-based, human; settings: H1299 cells, 48 h
# Description: Detection of p21^waf1 and RhoB protein induction in response to trapoxin A treatment. […] Whole lysates are prepared in triple detergent lysis buffer (50 mM Tris, pH 8, 150 mM NaCl, 0.02% NaN3, 0.1% SDS, 1% Nonidet P-40, 0.5% sodium deoxycholate, 100 μg/ml phenylmethylsulfonyl fluoride, 1 μg/ml aprotinin) and proteins are separated by SDS-polyacrylamide electrophoresis, electrophoretically transferred to nitrocellulose membranes, and incubated with anti-p21^waf1 (BD Pharmingen, San Jose, Calif.) or anti-RhoB (Santa Cruz Biotechnologies, Santa Cruz Calif.). Immunoreactive proteins are visualized using ECL chemiluminescence system (Amersham Pharmacia Biotech., Piscataway, N.J.).
# RhoB promoter = RhoB promoter luciferase reporter assay in transfected H1299 cells treated with TPX
smiles,measurement,setting,value
"O=C(CCCCC[C@@H]1NC(=O)[C@H]2CCCCN2C(=O)[C@H](Cc2ccccc2)NC(=O)[C@H](Cc2ccccc2)NC1=O)C1CO1 (stereo partly drawn) [TPX, Trapoxin A] (cyclo(FF[dPip][Aoe(9ξ)]))",Expression of RhoA (additional microarray analysis),H1299 cells [1],unchanged
same,Expression of RhoC (additional microarray analysis),H1299 cells [1],unchanged
same,RhoB upregulation (additional microarray analysis),H1299 cells [1],approximately 8 fold
same,RhoB mRNA level (Northern analysis),"H1299 cells [2]; 30 nM, 6 h",up-regulated
same,"Directional trend in differential expression vs arrays (Northern; G9 sialidase, IPP isomerase, p21waf1, IP-30, Hsp 70, UpaR, KIAA0797)","H1299 cells [2]; TPX 0, 6 and 18 h",confirmed
same,TPX-induced p21waf1 expression (Western blotting),p21waf1,decreased
same,Induction of luciferase activity driven by the RhoB promoter,"RhoB promoter; 30 nM TPX 24 h, normalized to DMSO",about 10 fold
same,Effect of insertion of three nucleotides (AAA) between CCAAT and TATA boxes on TPX induction,"RhoB promoter; 30 nM TPX vs 0.1% DMSO, 24 h",no effect
same,Induction of RhoB promoter 5′ deletion constructs (luciferase activity),RhoB promoter; all constructs generated,induced by TPX to a similar extent
